Measured values taken from patent publication US11345956B2, “Methods and compositions related to prostate cancer therapeutics” (The Johns Hopkins University, priority 2014, dated 2022).
Like-named read-outs stand apart in the source and are kept apart here.

System: metastatic castration-resistant prostate cancer (CRPC)
Conditions: for median overall survival (OS): preliminary survival analysis; for PSA response rate (≥50% PSA decline from baseline, maintained ≥4 weeks): all patients of the cohort; for HR for PFS, AR-V7 presence / HR for PSA-PFS, AR-V7 presence: multivariable Cox model adjusting for AR-FL expression and prior use of the alternative AR-directed agent; for HR for PFS, AR-FL levels / HR for PSA-PFS, AR-FL levels / HR for PFS, previous use of alternative AR-directed agent / HR for PSA-PFS, previous use of alternative AR-directed agent: multivariable Cox model; for HR for PFS, AR-FL levels / HR for PSA-PFS, AR-FL levels: covariate AR-FL level; for HR for PFS, previous use of alternative AR-directed agent / HR for PSA-PFS, previous use of alternative AR-directed agent: previous abiraterone (enzalutamide cohort) or previous enzalutamide (abiraterone cohort); for Hazard Ratio (HR) for PFS, variable AR-FL Level (log) / Hazard Ratio (HR) for PFS, variable AR-V7 Positive / Hazard Ratio (HR) for PFS, variable Prior use of Abiraterone / Hazard Ratio (HR) for PSA-PFS, variable AR-FL Level (log) / Hazard Ratio (HR) for PSA-PFS, variable AR-V7 Positive / Hazard Ratio (HR) for PSA-PFS, variable Prior use of Abiraterone: propensity score weighted multivariable model; for hazard ratio (HR) for OS, AR-V7-positive vs AR-V7-negative / hazard ratio (HR) for PFS, AR-V7-positive vs AR-V7-negative / hazard ratio (HR) for PSA-PFS, AR-V7-positive vs AR-V7-negative: univariate, log-rank
[1] = AR-V7-negative patients (baseline CTCs)
[2] = AR-V7-positive patients (baseline CTCs)
[3] = no previous alternative AR-directed agent (abiraterone/enzalutamide)
[4] = no previous alternative AR-directed agent (abiraterone/enzalutamide), AR-V7 [+]
[5] = no previous alternative AR-directed agent (abiraterone/enzalutamide), AR-V7 [−]
[6] = previous alternative AR-directed agent (abiraterone/enzalutamide), AR-V7 [+]
[7] = previous alternative AR-directed agent (abiraterone/enzalutamide), AR-V7 [−]
[8] = previous alternative AR-directed agent (abiraterone/enzalutamide)

Procedure: Men with metastatic CRPC who were beginning standard-of-care treatment with enzalutamide or abiraterone were prospectively enrolled. Patients were required to have histologically-confirmed prostate adenocarcinoma, progressive disease despite “castration levels” of serum testosterone (<50 ng/dL; and androgen-deprivation therapy had to continue), and radiographic metastases on computed tomography (CT) or technetium-99 bone scans. […] Patients were excluded if they planned to receive additional concurrent anticancer therapies. Prior chemotherapy was permitted, as was previous treatment with the alternative AR-directed agent (i.e. prior abiraterone use in enzalutamide-treated patients, and vice versa).
This was a prospective study evaluating the ability of baseline (pretreatment) AR-V7 status from CTCs (circulating tumor cells) to predict response or resistance to AR-directed agents.
Follow-up was prospectively defined: patients had PSA measurements every 1-2 months, as well as CT (chest/abdomen/pelvis) and technetium-99 bone scans every 2-4 months.
CTC analyses were conducted using the commercially-available ALERE™ CTC AdnaTest platform (AdnaGen, Langenhagen, Germany). Isolation and enrichment of CTCs was performed using the ProstateCancerSelect kit, and mRNA expression analyses were performed using the ProstateCancerDetect kit with multiplexed reverse-transcription polymerase-chain-reaction (qRT-PCR) primers to detect the presence of CTCs, and custom primers designed to detect the full-length-AR (AR-FL) and AR splice variant-7 (AR-V7) (Hu, R., et al. (2009) Cancer Res 69, 16-22). Relative AR-V7 transcript abundance was determined by calculating the ratio of AR-V7 to AR-FL (Hu, R., et al. (2009) Cancer Res 69, 16-22; Watson, P. A., et al. (2010) Proceedings of the National Academy of Sciences).
Best PSA response (maximal percentage PSA decrease from baseline) for each patient was also determined.
Secondary endpoints included freedom-from-PSA-progression (PSA-progression-free-survival; PSA-PFS), freedom-from-clinical/radiographic-progression (progression-free-survival; PFS), and overall survival (OS). PSA-progression was defined as a ≥25% increase in PSA from nadir (and by ≥2 ng/mL), requiring confirmation ≥4 weeks later (PCWG2 criteria) (Scher, H. I., et al. (2008) Journal of Clinical Oncology: Oficial Journal of the American Society of Clinical Oncology 26, 1148-1159).

| Compound | median PSA-progression-free survival (PSA-PFS) (AR-V7-negative patients) | median clinical/radiographic progression-free survival (PFS) (AR-V7-negative patients) | PSA response rate (≥50% PSA decline from baseline) [1] | median overall survival (OS) (AR-V7-negative patients) | median PSA-progression-free survival (PSA-PFS) (AR-V7-positive patients) | median clinical/radiographic progression-free survival (PFS) (AR-V7-positive patients) | PSA response rate (≥50% PSA decline from baseline) [2] | median overall survival (OS) (AR-V7-positive patients) | PSA response rate (≥50% PSA decline from baseline, maintained ≥4 weeks) | HR for PFS, AR-V7 presence | HR for PSA-PFS, AR-V7 presence | HR for PFS, AR-FL levels | HR for PSA-PFS, AR-FL levels | HR for PFS, previous use of alternative AR-directed agent | HR for PSA-PFS, previous use of alternative AR-directed agent | PSA Response [4] | PSA Response [5] | PSA Response [6] | PSA Response [7] | Hazard Ratio (HR) for PFS, variable AR-FL Level (log) | other results |
| --- | --- | --- | --- | --- | --- | --- | --- | --- | --- | --- | --- | --- | --- | --- | --- | --- | --- | --- | --- | --- | --- |
| C[C@]12CC[C@H](O)CC1=CC[C@@H]1[C@@H]2CC[C@]2(C)C(c3cccnc3)=CC[C@@H]12 [abiraterone] | > 5.3 months | > 6.3 months | 68.0% | > 11.9 months | 1.3 months | 2.3 months | 0% | 10.6 months | 54.8% | 7.6 | 15.7 | 1.1 | 1.0 | 1.9 | 0.9 | 0% | 74% | 0% | 0% | 1.36 | PFA-PFS HR, AR-V7 [+] vs [−] [3]: HR 41.0; PFS HR, AR-V7 [+] vs [−] [3]: HR 28.2; Hazard Ratio (HR) for PFS, variable AR-V7 Positive: 5.25; Hazard Ratio (HR) for PFS, variable Prior use of Abiraterone: 1.72; Hazard Ratio (HR) for PSA-PFS, variable AR-FL Level (log): 1.05; Hazard Ratio (HR) for PSA-PFS, variable AR-V7 Positive: 17.51; Hazard Ratio (HR) for PSA-PFS, variable Prior use of Abiraterone: 0.61; hazard ratio (HR) for OS, AR-V7-positive vs AR-V7-negative: 12.7; hazard ratio (HR) for PFS, AR-V7-positive vs AR-V7-negative: 16.5; hazard ratio (HR) for PSA-PFS, AR-V7-positive vs AR-V7-negative: 16.1 |
| CNC(=O)c1ccc(N2C(=S)N(c3ccc(C#N)c(C(F)(F)F)c3)C(=O)C2(C)C)cc1F [enzalutamide] | 6.0 months | 6.1 months | 52.6% | not reached | 1.4 months | 2.1 months | 0% | 5.5 months | 32.3% | 3.0 | 3.1 | 1.7 | 1.4 | 2.6 | 2.5 | 0% | 80% | 0% | 22% | 1.64 | PFA-PFS HR, AR-V7 [+] vs [−] [8]: HR 3.34; PFS HR, AR-V7 [+] vs [−] [8]: HR 2.93; Hazard Ratio (HR) for PFS, variable AR-V7 Positive: 3.38; Hazard Ratio (HR) for PFS, variable Prior use of Abiraterone: 1.54; Hazard Ratio (HR) for PSA-PFS, variable AR-FL Level (log): 1.33; Hazard Ratio (HR) for PSA-PFS, variable AR-V7 Positive: 3.40; Hazard Ratio (HR) for PSA-PFS, variable Prior use of Abiraterone: 2.66; hazard ratio (HR) for OS, AR-V7-positive vs AR-V7-negative: 6.9; hazard ratio (HR) for PFS, AR-V7-positive vs AR-V7-negative: 8.5; hazard ratio (HR) for PSA-PFS, AR-V7-positive vs AR-V7-negative: 7.4 |
